Laboratory results from US10233483B2, “Methods of targeted antibiotic susceptibility testing” (Qvella Corporation, priority 2013, dated 2019).

What was measured:
Klebsiella pneumoniae = experiment: Antimicrobial sensitivity testing of bacteria in partially lysed then enriched whole blood, real-time RT-PCR of rRNA and tmRNA; assay type: cell-based; details: 8 ug/mL final concentration, 2 hours incubation at 37° C. after 2 hours pre-incubation, K. pneumoniae spiked whole blood enriched with TSB
Protocol: Unless any variation is specified, the following example pretreatment procedure which includes blood cell lysis step followed by 4 wash cycles was performed in experiments which required pretreatment of blood samples. 10 μL of Fluorinert™ was added to 2 mL siliconized microcentrifuge tubes (T3531, Sigma), followed by the addition of 500 μL of the blood cell lysis reagent. The blood cell lysis reagent consisted of 75 mg/mL saponin, 15 mg/mL SPS and 1% PPG. EDTA-treated human whole blood from healthy volunteers of 1 mL spiked with microbial cells was added to the tube containing the blood cell lysis reagent and the Fluorinert™, and mixed by inverting ten times and vortexing at low speeds for 10 sec. The final concentrations of the components in the mixture were 25 mg/mL saponin, 5 mg/mL SPS and 0.33% PPG. The tubes were centrifuged at 12,000 rpm for 1 min and 1.35 mL of the supernatant was removed, leaving 150 uL of the liquid supernatant, Fluorinert™ and the sedimented microbial I cells. The first wash cycles was performed by adding 1.35 mL of 0.8 mM phosphate buffer to the remaining liquid supernatant of 150 uL as described above, mixing by vortexing at low speed for 10 sec, centrifugation at 12,000 rpm for 1 min and removal of 1.35 mL of the supernatant, leaving 150 μL of the liquid supernatant, the Fluorinert™ and the sedimented microbial. […]

E. coli = experiment: DnaK mRNA level after heat-shock induction in bacteria exposed to antibiotic, real-time RT-PCR; assay type: cell-based, Escherichia coli; details: 4 or 8 ug/mL, 120 min at 37° C. in LB broth, heat-shock 42° C. 3 min before E-lysis
Protocol: Unless any variation was specified, RT-PCR reaction of 5 μL volume was prepared by mixing 1 μL of sample, 1 μL of Kapa 2G Robust Hotstart 5× buffer (KK5517, KAPA Biosystems), 0.05 μL of Kapa 2G Robust Hotstart DNA polymerase (kk5517, KAPA Biosystems), 0.2 μL of reverse transcriptase (GoScript, A5004 Promega), 0.04 uL of 100 mM dNTPs (10297-117, Life Technologies), 0.25 uL of DMSO, 0.13 uL of SYBR Green (1/375 dilution, S7563 Invitrogen), 0.5 μL each of respective forward and reverse primers (2.5 μM) and 1.34 μL of RNAase free water. In indicated experiments, for PCR reaction of 5 μL volume the composition was the same as RT-PCR reaction except 0.2 μL of RNAase free water was added instead of reverse transcriptase. Real time RT-PCR targeting rRNA or tmRNA was performed by reverse transcription at 50° C. for 5 min, inactivation of reverse transcriptase and activation of hotstart DNA polymerase at 97° C. for 5 min, followed by 35 to 40 cycles of cDNA amplification (denaturation at 95° C. for 5 sec, annealing at 63° for 7 sec, and extension at 72° C. for 10 sec) in Eco Real Time PCR system (Illumina) using a double stranded DNA binding fluorescent dye, SYBR Green. […]
As it is observed, the exposure of microbial cells to the antibiotic norfloxacin reduced the quantity of target mRNA by approximately 8-16 times (corresponding to 3-4 PCR cycles).

## CCn1cc(C(=O)O)c(=O)c2cc(F)c(N3CCNCC3)cc21 [norfloxacin]
Klebsiella pneumoniae
  rRNA and tmRNA RT-PCR signal in response to the antibiotic compared to without antibiotic (Non-treated) culture: reduction of rRNA and tmRNA
E. coli
  reduction of target mRNA (DnaK) signal in PCR cycles after exposure to the antibiotic: 3-4 PCR cycles
  reduction of the quantity of target mRNA (DnaK) after exposure to the antibiotic: 8-16 times
